In patent US10060935B2, “ApoIII and the treatment and diagnosis of diabetes” (BioCrine AB, priority 2003, dated 2018):
Entries after “also recorded” stand apart in the source; their conditions may differ.

Legend:
RINm5F cells = test: Flow cytometric analysis of cell death (Annexin V / propidium iodide); format: cell-based; details: 40 μg/ml apoCIII added to culture medium with 10% control serum, 36 h
Experimental: Quantification of apoCIII Sera were collected and prepared as described above. The relative amounts of apoCIII in T1D serum and control serum, respectively were evaluated by comparisons of the peak area corresponding to apoCIII in the second RP-HPLC. • Flow Cytometric Analysis of Cell Death RINm5F cells were cultured for 36 h in the presence of 10% control serum, control serum and 40 μg/ml apoCIII or T1D serum with or without 100 or 200 μg/ml anti-apoCIII. The whole cell population was collected and stained with EGFP-conjugated Annexin V and propidium iodide (PI) (BD PharMingen) and analyzed on a FACscan using CELLQuest acquisition software (Becton Dickinson, Immunocytometry System). FACS gating, based on forward and side scatter, was used to exclude cellular debris and autofluorescence and typically 10 000 cells were selected for analysis.

[1] = system: voltage-gated L-type Ca2+-channel; test: Perforated-patch whole-cell patch clamp of Ca2+ currents in β-cells; format: cell-based, mouse; details: β-cells incubated with 10 μg/ml apoCIII overnight; depolarizations −10 to 10 mV from holding potential −70 mV
Experimental: Patch Clamp Whole-cell Ca^2+ currents were recorded by using the perforated-patch variant of the whole-cell patch-clamp recording technique to eliminate the loss of soluble cytoplasmic components. Electrodes were filled with (in mM): 76 Cs2SO4, 1 MgCl2, 10 KCl, 10 NaCl, and 5 HEPES (pH 7.35), as well as amphotericin B (0.24 mg/ml) to permeabilize the cell membrane and allow low-resistance electrical access without breaking the patch. Pancreatic β-cells were incubated in RPMI 1640 medium with apoCIII (10:g/ml) or vehicle overnight. The cells were bathed in a solution containing (in mM): 138 NaCl, 10 tetraethylammonium chloride, 10 CaCl2, 5.6 KCl, 1.2 MgCl2, 5 HEPES and 3 D-glucose (pH 7.4). Whole-cell currents induced by voltage pulses (from a holding potential of −70 mV to several clamping potentials from −60 to 50 mV in 10 mV increments, 100 ms, 0.5 Hz) were filtered at 1 kHz and recorded. All recordings were made with an Axopatch 200 amplifier (Axon Instruments, Foster City, Calif.) at room temperature (about 22° C.). Acquisition and analysis of data were done using the software program pCLAMP6 (Axon Instruments, Foster City, Calif.).

pancreatic β-cells = test: Measurements of [Ca2+]i (fura-2) in β-cells upon depolarization with 25 mM KCl; format: cell-based, mouse; details: for increase in [Ca2+]i / Ca2+ influx upon depolarization: 10 μg/ml, incubation of β-cells, versus vehicle (0.1% TFA) control
Experimental: Preparation of Cells Adult mice from a local colony (3) were starved overnight. Pancreatic islets were isolated by a collagenase technique and cell suspensions were prepared as previously described (4, 5). Cells were seeded onto glass coverslips and cultured at 37° C. in a humidified atmosphere of 5% CO2 in air. • Preparation and Purification of Sera: Sera from T1D patients and control subjects were collected, identically sterile-processed and stored frozen at −20° C. until used. The sera were heat-inactivated by incubation at 56° C. for 30 min. Thereafter β-cells were incubated overnight in RPMI 1640 culture medium with 10% of the sera and changes in [Ca^2+]i were recorded, subsequent to depolarization with 25 mM KCl. The five T1D sera that induced an enhanced [Ca^2+]i response were centrifuged and the supernatant was passed through a […] sterile filter. Samples were loaded on Sep-Pak C18 (Waters, Ma) preconditioned with 0.1% TFA. After a wash with 0.1% TFA, proteins were eluted with 60% acetonitrile in 0.1% TFA and thereafter lyophilized. Batches of one milligram of the lyophilized sample were dissolved in 500 μl 0.1% TFA, centrifuged and injected into a RP-HPLC with a Vydac C18 (0.46×25 cm) column (Grace Vydac, Hesperia, Ca). The separation was made using a linear gradient of 20-60% acetonitrile in 0.1% TFA for 40 min at 1 ml/min. Fractions of 1 ml were collected and lyophilized.
Measurements of [Ca^2+]i Cells, attached to coverslips, were pretreated with the different compounds as described in the results and thereafter incubated in basal medium with 2 μM fura-2AM (Molecular Probes, Eugene, Oreg.) for 30 min. The coverslips were mounted as the bottom of an open chamber and cells were perfused with medium. Fluorescence signals were recorded with a SPEX Fluorolog-2 system connected to an inverted Zeiss Axiovert epifluorescence microscope. The excitation and emission wavelengths were 340/380 and 510 nm, respectively. The results are presented as 340/380 excitation ratios, directly representative of [Ca^2+]i (7).

Ca2+-channel = test: Immunoblot experiments for direct interaction with the Ca2+-channel; format: binding; details: immunoblot (data not shown)

apolipoprotein CIII [apoCIII]
cell death (RINm5F cells): increased cell death | cell death (RINm5F cells; listed as ApoCIII): β-cell death | Ca2+-channel currents [1]: larger Ca^2+-channel currents than control cells; also recorded: activation of the voltage-gated L-type Ca^2+-channel | increase in [Ca2+]i / Ca2+ influx upon depolarization (pancreatic β-cells): stimulate Ca^2+ influx | increase in [Ca2+]i / Ca2+ influx upon depolarization (pancreatic β-cells; listed as ApoCIII): increase in [Ca^2+]i | effect on [Ca2+]i (pancreatic β-cells; apoCIII 1, 3 and 6 μg/ml in culture medium): did not see any effects | effect on [Ca2+]i (pancreatic β-cells; apoCIII 10-50 μg/ml in culture medium): responses | direct interaction with the Ca2+-channel (Ca2+-channel): not revealed a direct interaction
